Assay results published in PubChem BioAssay (NCI).
Several values for one entry are separate records, joined by “and”; a condition that tells them apart may be missing. Identical values can stand only once.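 Test compounds were applied to cells in 96-well plates for 48 hours at 5 doses. The concentration for 50% growth inhibition is given as GI50. At the TGI there is no net growth.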

How the values were obtained:
Assay in all cases: NCI-60 cell line screen, 48 h
RXF 393 renal = test system: RXF 393 renal
SN12C renal = test system: SN12C renal
SNB-19 CNS = test system: SNB-19 CNS
SK-MEL-2 melanoma = test system: SK-MEL-2 melanoma
HCT-15 colon = test system: HCT-15 colon
A498 renal = test system: A498 renal
SF-539 CNS = test system: SF-539 CNS
M14 melanoma = test system: M14 melanoma
LOX IMVI melanoma = test system: LOX IMVI melanoma
SW-620 colon = test system: SW-620 colon

SMILES	GI50 (RXF 393 renal)	TGI (RXF 393 renal)	GI50 (SN12C renal)	TGI (SN12C renal)	GI50 (SNB-19 CNS)	TGI (SNB-19 CNS)	GI50 (SK-MEL-2 melanoma)	TGI (SK-MEL-2 melanoma)	GI50 (HCT-15 colon)	TGI (HCT-15 colon)	GI50 (A498 renal)	TGI (A498 renal)	GI50 (SF-539 CNS)	TGI (SF-539 CNS)	GI50 (M14 melanoma)	TGI (M14 melanoma)	GI50 (LOX IMVI melanoma)	TGI (LOX IMVI melanoma)	GI50 (SW-620 colon)	TGI (SW-620 colon)
CC(=O)O[C@H]([C@H](OC(C)=O)[C@H](C)OC(C)=O)[C@@H](/C=C/[C@@H]1CC=CC(=O)O1)OC(C)=O	> 100 µM	> 100 µM	84.1 µM	> 100 µM	59.5 µM	> 100 µM	24 µM	74.4 µM	44.2 µM	> 100 µM	50.2 µM	> 100 µM	34.5 µM	92.7 µM	42.6 µM	> 100 µM	57.1 µM	> 100 µM	40 µM	> 100 µM
C=C1C(=O)O[C@H]2[C@H]1CC/C(COC(=O)NCc1c[nH]c3ccccc13)=C\CC[C@@]1(C)O[C@@H]21	1.24 µM	2.72 µM	1.77 µM	5.47 µM	10.6 µM	22.8 µM	11.1 µM	24.5 µM	1.67 µM	4.19 µM	11.1 µM	23.2 µM	2.82 µM	10.4 µM	1.91 µM	5 µM	1.4 µM	2.87 µM	1.7 µM	4.28 µM
C[C@H]1/C(=C/C(=O)OCCN(C)C)CC[C@H]2[C@H]1C(=O)C[C@H]1C(C)(C)[C@@H](O)CC[C@]21C	–	> 100 µM	–	> 100 µM	–	> 100 µM	–	> 100 µM	–	> 100 µM	–	> 100 µM	–	> 100 µM	–	> 100 µM	–	> 100 µM	–	> 100 µM
Cc1ccc2oc(=O)cc(/C(=C3/C=CC=N3)c3ccc[nH]3)c2c1	0.256 µM	0.748 µM	0.672 µM	3.36 µM	0.355 µM	4.94 µM	0.74 µM	2.89 µM	0.298 µM	10.1 µM	0.269 µM	0.92 µM	0.226 µM	0.67 µM	0.209 µM	0.548 µM	0.343 µM	1.41 µM	0.396 µM	13.7 µM
O=C(O)C[C@@H](Cl)[C@H](NC(=O)OCc1ccccc1)C(=O)O	–	> 100 µM	–	> 100 µM	–	> 100 µM	–	> 100 µM	–	> 100 µM	–	> 100 µM	–	> 100 µM	–	> 100 µM	–	> 100 µM	–	> 100 µM
CO[C@H]1C=CO[C@@]2(C)Oc3c(C)c(O)c4c(O)c(c(CN5CCN(C)CC5)c(O)c4c3C2=O)NC(=O)/C(C)=C\C=C[C@H](C)[C@H](O)C(C)[C@@H](O)C(C)[C@H](OC(C)=O)[C@@H]1C (stereo partly drawn)	–	> 100 µM	–	> 93.9 µM	–	> 100 µM	–	> 100 µM	–	> 100 µM	–	> 100 µM	–	> 68.5 µM	–	> 75 µM	–	> 71.9 µM	–	> 100 µM
O=C1CSC(=S)N1c1ccco1	–	> 100 µM	–	> 100 µM	–	> 100 µM	–	> 100 µM	–	50.9 µM	–	> 100 µM	–	> 100 µM	–	> 100 µM	–	> 100 µM	–	> 100 µM
CCC(=O)N1C(=O)OCC1C(C)C (stereo not drawn)	–	> 100 µM	–	> 100 µM	–	> 100 µM	–	> 100 µM	–	> 100 µM	–	> 100 µM	–	> 100 µM	–	> 100 µM	–	> 100 µM	–	> 100 µM
O=C(/C=C/c1ccc(Cl)cc1)c1ccccc(=O)c1O	–	> 100 µM	–	4.58 µM	–	11.8 µM	–	11.8 µM	–	6.08 µM	–	36 µM	–	17.5 µM	–	20.1 µM	–	13 µM	–	> 40 µM
CC(=O)Nc1cc2cc(N)ccc2oc1=O	–	> 100 µM	–	> 100 µM	–	> 100 µM	–	> 100 µM	–	> 100 µM	–	> 100 µM	–	> 100 µM	–	> 100 µM	–	> 100 µM	–	> 100 µM
CCN(CC)CCCC(C)Nc1ccnc2cc(Cl)ccc12 (stereo not drawn)	7.95 µM	> 100 µM and 26.2 µM	> 100 µM	> 100 µM and 97.1 µM	> 100 µM	> 100 µM	> 100 µM	> 100 µM and 14.9 µM	57.9 µM	> 100 µM	> 100 µM	> 100 µM	–	35.7 µM and 32.5 µM	18.5 µM	32.5 µM and 28.4 µM	18.4 µM	48.8 µM and 45 µM	–	> 100 µM
CN(C)CCCN(CCC1CCCCC1)CCC1CCCCC1	1.47 µM	4.24 µM	9.79 µM	22.9 µM	5.63 µM	18.8 µM	1.93 µM	3.73 µM	1.46 µM	3.59 µM	2.87 µM	9.61 µM	1.68 µM	3.16 µM	1.87 µM	3.66 µM	1.47 µM	2.91 µM	1.75 µM	3.31 µM
CSC(=NC#N)S/C=C/C(=O)c1ccccc1	31.1 µM	79 µM	39.4 µM	> 100 µM	> 100 µM	> 100 µM	70.6 µM	> 100 µM	34.8 µM	> 100 µM	61 µM	> 100 µM	22.6 µM	49.4 µM	24.7 µM	65.8 µM	31 µM	> 100 µM	18 µM	43.3 µM
Nc1c(C(=O)Nc2ccccc2)sc2nc3c(cc12)CCCCC3	0.321 µM	1.22 µM	1.88 µM	> 100 µM	0.643 µM	> 100 µM	1.72 µM	20.4 µM	0.421 µM	> 100 µM	0.307 µM	4.74 µM	0.307 µM	12 µM	0.278 µM	0.945 µM	0.907 µM	> 100 µM	0.443 µM	> 100 µM
C=C(CN1CCN(c2ccc(C(F)(F)F)cc2)CC1)c1ccc(C(=O)Nc2ccccc2N)cc1	1.97 µM	6 µM	6.37 µM	> 100 µM	12.5 µM	73.5 µM	> 100 µM	> 100 µM	> 100 µM	> 100 µM	7.67 µM	61.5 µM	8.15 µM	> 100 µM	> 90.5 µM	> 100 µM	11.1 µM	> 100 µM	> 78.8 µM	> 100 µM
O=C(CCl)NCCNc1nccc(Nc2ccc(S(=O)(=O)Nc3ccccn3)cc2)n1	2.61 µM	7.83 µM	2.85 µM	11.1 µM	2.42 µM	7.56 µM	2.33 µM	7.83 µM	1.62 µM	4.38 µM	3.67 µM	13.1 µM	1.85 µM	3.9 µM	1.72 µM	4.69 µM	1.75 µM	4.12 µM	2.49 µM	7.27 µM
CC1=C2CC(C)(C)/C=C\C(=O)/C(C)=C\C3=C[C@H](C)C[C@]3(O2)C1=O	–	2.13 µM	–	10.2 µM	–	37.2 µM	–	7.69 µM	–	2.53 µM	–	11.1 µM	–	3.09 µM	–	1.27 µM	–	1.64 µM	–	1.49 µM
Cc1c2ccn(O)cc2c(C)c2c1nc1ccccc12	–	22.6 µM	–	> 100 µM	–	30.8 µM	–	> 50 µM	–	> 100 µM	–	55.6 µM	–	11 µM	–	> 100 µM	–	17.1 µM	–	> 100 µM
CC(=O)/C(=C/c1ccccc1)C(=O)CC(C)C	16.4 µM	30.5 µM	14.3 µM	39 µM	12.7 µM	26.2 µM	24.5 µM	60.7 µM	4.69 µM	22.3 µM	19.4 µM	38.8 µM	23.4 µM	49.4 µM	10.8 µM	24.3 µM	1.85 µM	4.02 µM	2.14 µM	4.63 µM
O=C1/C=C/[C@@H](O)[C@@H]2C[C@@H](O)C[C@H]2/C=C/CCC[C@H](CCc2cccc3ccccc23)O1	0.0227 µM	0.0674 µM	0.248 µM	11.5 µM	0.0923 µM	22 µM	0.175 µM	0.521 µM	0.326 µM	10.5 µM	0.0185 µM	0.815 µM	0.121 µM	16.3 µM	0.0492 µM	8.58 µM	0.0323 µM	0.11 µM	0.0518 µM	0.451 µM
COc1cc(C2CC(c3cccc(Nc4ccnc5cc(Cl)ccc45)c3)=NN2c2ccc(Cl)cc2)cc(OC)c1OC (stereo not drawn)	2.42 µM	34.4 µM	7.24 µM	> 100 µM	30.3 µM	> 100 µM	4.65 µM	35.3 µM	1.28 µM	> 100 µM	4.65 µM	91.5 µM	1.71 µM	4.87 µM	0.63 µM	13.8 µM	0.647 µM	> 100 µM	0.666 µM	> 100 µM
CC(=O)OC1CCC2(C)C(CCC3C2CC(=O)C2(C)C3CC(N3CC3)C2C(C)=O)C1 (stereo not drawn)	–	42.3 µM	–	61 µM	–	63.4 µM	–	36.1 µM	–	70.6 µM	–	53.9 µM	–	37.3 µM	–	51.7 µM	–	29.3 µM	–	> 100 µM
CCCCCCCCCCCCCCCCCc1nccn1CCOCCO	5.04 µg/mL	10.1 µg/mL	5.11 µg/mL	10.1 µg/mL	5.03 µg/mL	10.3 µg/mL	7.58 µg/mL	14 µg/mL	6.36 µg/mL	12.2 µg/mL	4.82 µg/mL	11 µg/mL	5.74 µg/mL	11.1 µg/mL	6.69 µg/mL	13 µg/mL	5.11 µg/mL	10.4 µg/mL	6.19 µg/mL	11.7 µg/mL
CC/C=C\C[C@H](F)C/C=C1/C(=O)C=C[C@@H]1C/C=C\CCCC(=O)OC	6.95 µM	14.3 µM	1.25 µM	3.24 µM	2.35 µM	9.23 µM	4.88 µM	13 µM	1.19 µM	4.42 µM	9.41 µM	17.2 µM	4.26 µM	11.2 µM	1.65 µM	5.8 µM	0.854 µM	1.75 µM	1.62 µM	4.73 µM
